The values that follow come from ChEMBL document CHEMBL5370623, “Discovery of Quinazoline-2,4(1H,3H)-dione Derivatives Containing a Piperizinone Moiety as Potent PARP-1/2 Inhibitors─Design, Synthesis, In Vivo Antitumor Activity, and X-ray Crystal Structure Analysis” (J Med Chem, 2023).

Molecules are shown by their SMILES. Values after ≈ are worked out from the molar mass of the structure shown. Active and inactive are the calls of the source. The calls are words filed in the database; no cut-off is given here. Some results are limits rather than exact numbers.

Data set [1] addresses Poly [ADP-ribose] polymerase 2 (Homo sapiens, UniProt Q9UGN5). The experiment in a line: Inhibition of human recombinant PARP2 expressed in Escherichia coli BL21(DE3) incubated for 1 hr by ELISA assay.
For data set [2], the system named is MX1. The experiment in a line: Potentiation factor, ratio of IC50 for cytotoxicity against human MX1 cells to IC50 for cytotoxicity against human MX1 cells in presence of temozolomide. The class given is functional.
The target in data set [3] is T1, Poly [ADP-ribose] polymerase 1 (Homo sapiens, UniProt P09874). The experiment in a line: Inhibition of human recombinant PARP1 expressed in Escherichia coli BL21(DE3) incubated for 1 hr by ELISA assay.
The test system of data set [4] is MX1. The experiment in a line: Cytotoxicity against human MX1 cells […] assessed as inhibition of cell growth measured after 72 hrs by MTT assay. It counts as functional, cell-based. The conditions noted are these: MX1, 72 h.
Data set [5] deals with T1, Poly [ADP-ribose] polymerase 1. Nature of the data set: Inhibition of human PARP1 in human MX1 cells assessed as enzyme-DNA trapping activity at 1 uM incubated for 24 hrs by Western blot analysis. It counts as cell-based.
Data set [6] can be described thus: AUC (0 to t) in BALB/c mouse at 25 mg/kg, po measured upto 24 hrs by LC-MS/MS analysis. The class given is ADME, organism-based. More on the design: time < 24 hrs, dose 25 mg/kg, route po. The conditions noted are these: in vivo.
Data set [7] in a line: Tmax in BALB/c mouse at 25 mg/kg, po measured upto 24 hrs by LC-MS/MS analysis. The class given is ADME, organism-based. The conditions noted are these: in vivo.
Data set [8] in a line: Aqueous solubility of the compound. The class given is physicochemical.
Data set [9] can be described thus: Cmax in BALB/c mouse at 25 mg/kg, po measured upto 24 hrs by LC-MS/MS analysis. The class given is ADME, organism-based. Also noted: time < 24 hrs, dose 25 mg/kg, route po. The conditions noted are these: in vivo.
A short description of data set [10]: MRT (0 to t) in BALB/c mouse at 25 mg/kg, po measured upto 24 hrs by LC-MS/MS analysis. The class given is ADME, organism-based. The conditions noted are these: in vivo.
Data set [11] can be described thus: MRT (0 to infinity) in BALB/c mouse at 25 mg/kg, po measured upto 24 hrs by LC-MS/MS analysis. The conditions noted are these: in vivo. The class given is ADME, organism-based.
A short description of data set [12]: AUC (0 to infinity) in BALB/c mouse at 25 mg/kg, po measured upto 24 hrs by LC-MS/MS analysis. It counts as ADME, organism-based. Also noted: dose 25 mg/kg, time < 24 hrs, route po. As to conditions: in vivo.
Data set [13] is described as follows: Half life in BALB/c mouse at 25 mg/kg, po measured upto 24 hrs by LC-MS/MS analysis. It counts as ADME, organism-based. As to conditions: in vivo.

Poly [ADP-ribose] polymerase 2, sequence (Q9UGN5 whole entry): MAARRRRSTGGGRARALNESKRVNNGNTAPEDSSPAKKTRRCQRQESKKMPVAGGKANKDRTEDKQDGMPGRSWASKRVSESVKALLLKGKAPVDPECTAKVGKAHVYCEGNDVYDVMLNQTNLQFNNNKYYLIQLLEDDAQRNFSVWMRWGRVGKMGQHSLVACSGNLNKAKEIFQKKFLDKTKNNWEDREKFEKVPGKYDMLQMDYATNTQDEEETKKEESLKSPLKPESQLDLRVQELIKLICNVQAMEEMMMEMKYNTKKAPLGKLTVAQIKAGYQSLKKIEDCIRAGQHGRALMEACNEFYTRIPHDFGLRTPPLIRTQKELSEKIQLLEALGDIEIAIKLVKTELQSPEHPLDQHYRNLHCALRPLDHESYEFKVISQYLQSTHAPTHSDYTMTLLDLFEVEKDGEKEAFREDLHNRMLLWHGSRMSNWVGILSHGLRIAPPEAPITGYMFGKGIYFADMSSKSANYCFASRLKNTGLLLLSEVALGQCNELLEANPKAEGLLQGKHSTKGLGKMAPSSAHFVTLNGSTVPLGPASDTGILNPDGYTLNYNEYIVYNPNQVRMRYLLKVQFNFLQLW
T1 sequence (P09874 whole entry): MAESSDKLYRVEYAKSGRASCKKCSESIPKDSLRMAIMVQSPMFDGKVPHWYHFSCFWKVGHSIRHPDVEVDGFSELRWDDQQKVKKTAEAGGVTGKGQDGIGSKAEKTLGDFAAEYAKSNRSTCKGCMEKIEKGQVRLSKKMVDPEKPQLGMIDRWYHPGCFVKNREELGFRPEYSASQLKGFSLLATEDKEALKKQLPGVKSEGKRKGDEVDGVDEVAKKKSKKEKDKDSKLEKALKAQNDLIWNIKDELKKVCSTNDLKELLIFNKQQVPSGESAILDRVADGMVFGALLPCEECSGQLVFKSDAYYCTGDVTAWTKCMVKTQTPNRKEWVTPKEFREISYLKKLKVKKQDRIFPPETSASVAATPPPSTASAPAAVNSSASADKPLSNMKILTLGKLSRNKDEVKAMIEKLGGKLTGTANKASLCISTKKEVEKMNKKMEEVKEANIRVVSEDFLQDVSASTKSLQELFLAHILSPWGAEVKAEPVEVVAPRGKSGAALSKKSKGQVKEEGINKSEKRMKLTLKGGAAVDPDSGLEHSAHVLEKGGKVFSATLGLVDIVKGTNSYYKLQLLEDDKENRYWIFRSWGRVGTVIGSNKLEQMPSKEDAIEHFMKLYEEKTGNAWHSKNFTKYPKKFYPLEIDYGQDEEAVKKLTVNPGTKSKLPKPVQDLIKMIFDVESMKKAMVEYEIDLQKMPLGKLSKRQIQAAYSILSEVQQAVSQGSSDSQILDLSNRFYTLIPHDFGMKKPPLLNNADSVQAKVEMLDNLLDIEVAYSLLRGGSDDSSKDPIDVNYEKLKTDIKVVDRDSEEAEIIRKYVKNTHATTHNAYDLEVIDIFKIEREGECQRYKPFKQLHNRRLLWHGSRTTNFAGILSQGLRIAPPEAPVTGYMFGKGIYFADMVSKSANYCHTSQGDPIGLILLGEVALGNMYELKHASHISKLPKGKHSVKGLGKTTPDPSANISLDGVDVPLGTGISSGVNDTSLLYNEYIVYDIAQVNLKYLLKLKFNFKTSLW

As to `CCCCCN1CCN(C(=O)c2cc(Cn3c(=O)[nH]c(=O)c4ccccc43)ccc2F)CC1=O`, the IC50 stood at 0.94 nM in data set [1], 2.71 nM in data set [3] and 331 nM in the data set on MX1 [4]. Further, the PF50 in the data set on MX1 [2] is more than 10. Also, the PARP1-DNA trapping activity result in data set [5] was “Active”.

`CCC(CC)N1CCN(C(=O)c2cc(Cn3c(=O)[nH]c(=O)c4ccccc43)ccc2F)CC1=O` yielded an AUC(0-t) at 24 h in data set [6] of 316 ng·h/mL. In addition, in [7], the Tmax was determined as 4.8 min. Also, the IC50 in [1] was 0.79 nM; in data set [3] it was 3.86 nM; with MX1 [4], 0.65 nM. Also, the PF50 with MX1 [2] is more than 10. Moreover, the solubility in data set [8] stood at 30.4 µg/mL (≈ 65.1 µM). The molecule also gave a Cmax in [9] of 515 ng/mL. Further, the MRT last at 24 h in data set [10] was found to be 32.4 min. In addition, the MRT inf in data set [11] came to 42 min. This molecule also came in with an AUC(0-inf) in data set [12] of 340 ng·h/mL. The molecule further had a half-life in [13] of 30.6 min.

`O=C1CN(C(=O)c2cc(Cn3c(=O)[nH]c(=O)c4ccccc43)ccc2F)CCN1CC1CCCCC1`: the IC50 in data set [1] came to 0.24 nM; in data set [3], 2.38 nM; with MX1 [4], 9.39 nM. In addition, in the data set on MX1 [2], the PF50 is on record as more than 10. The PARP1-DNA trapping activity result in data set [5] was “Active”.

For `O=C(c1cc(Cn2c(=O)[nH]c(=O)c3ccccc32)ccc1F)N1CCN(C2CCCC2)C(=O)C1`, the values for the IC50 (in data set [1]; in [3]; in the data set with MX1 [4]) were 0.29 nM, 1.4 nM and 13.2 nM, respectively. Besides, the PF50 in the data set on MX1 [2] was more than 10. For the same molecule, the PARP1-DNA trapping activity result in data set [5] is “Active”.

For `O=C(c1cc(Cn2c(=O)[nH]c(=O)c3ccccc32)ccc1F)N1CCN(c2ccccc2)C(=O)C1`, the IC50 in data set [1] stood at 0.62 nM; in data set [3] it was 1.02 nM; in the data set on MX1 [4], 4.88 nM. The PF50 in the data set with MX1 [2] is on record as more than 10. Moreover, the PARP1-DNA trapping activity result in data set [5] was “Active”.
